Laboratory results: ChEMBL document CHEMBL5678818, “Discovery of potent SOS1 inhibitors that block RAS activation via disruption of the RAS-SOS1 interaction” (Proc Natl Acad Sci U S A, 2019)

Tests used:
[1] = biological target: T1, Serine/threonine-protein kinase PknB (Mycobacterium tuberculosis) (UniProt P9WI81); assay: Inhibition of Mycobacterium tuberculosis PKNB assessed as residual activity at 1000 nM by KINOMEscan analysis relative to control
T1 sequence (whole entry): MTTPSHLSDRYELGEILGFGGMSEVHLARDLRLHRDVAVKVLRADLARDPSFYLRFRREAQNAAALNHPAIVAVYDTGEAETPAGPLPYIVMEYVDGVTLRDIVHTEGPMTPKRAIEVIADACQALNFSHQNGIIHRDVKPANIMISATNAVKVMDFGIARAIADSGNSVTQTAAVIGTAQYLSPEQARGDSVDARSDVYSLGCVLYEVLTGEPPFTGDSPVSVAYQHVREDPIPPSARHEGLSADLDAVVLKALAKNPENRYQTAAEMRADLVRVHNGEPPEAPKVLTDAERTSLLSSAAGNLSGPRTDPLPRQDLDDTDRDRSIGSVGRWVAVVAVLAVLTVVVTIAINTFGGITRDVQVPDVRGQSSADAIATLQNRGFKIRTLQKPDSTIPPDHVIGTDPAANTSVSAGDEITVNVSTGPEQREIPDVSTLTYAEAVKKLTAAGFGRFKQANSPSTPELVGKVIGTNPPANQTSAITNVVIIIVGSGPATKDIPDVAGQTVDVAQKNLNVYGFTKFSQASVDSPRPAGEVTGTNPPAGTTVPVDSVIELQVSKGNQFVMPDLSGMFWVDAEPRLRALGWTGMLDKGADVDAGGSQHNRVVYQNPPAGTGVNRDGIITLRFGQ

[2] = system: Epidermal growth factor receptor (Homo sapiens), P00533 [UNDEFINED MUTATION]; assay: Inhibition of EGFR L747-E749del/A750P mutant (unknown origin) assessed as residual activity at 1000 nM by KINOMEscan analysis relative to control
[3] = system: ALK tyrosine kinase receptor (Homo sapiens), Q9UM73 [L1196M]; assay: Inhibition of ALK L1196M mutant (unknown origin) assessed as residual activity at 1000 nM by KINOMEscan analysis relative to control
ALK tyrosine kinase receptor (Homo sapiens), Q9UM73 [L1196M], sequence (Q9UM73 whole entry L1196M, looked up): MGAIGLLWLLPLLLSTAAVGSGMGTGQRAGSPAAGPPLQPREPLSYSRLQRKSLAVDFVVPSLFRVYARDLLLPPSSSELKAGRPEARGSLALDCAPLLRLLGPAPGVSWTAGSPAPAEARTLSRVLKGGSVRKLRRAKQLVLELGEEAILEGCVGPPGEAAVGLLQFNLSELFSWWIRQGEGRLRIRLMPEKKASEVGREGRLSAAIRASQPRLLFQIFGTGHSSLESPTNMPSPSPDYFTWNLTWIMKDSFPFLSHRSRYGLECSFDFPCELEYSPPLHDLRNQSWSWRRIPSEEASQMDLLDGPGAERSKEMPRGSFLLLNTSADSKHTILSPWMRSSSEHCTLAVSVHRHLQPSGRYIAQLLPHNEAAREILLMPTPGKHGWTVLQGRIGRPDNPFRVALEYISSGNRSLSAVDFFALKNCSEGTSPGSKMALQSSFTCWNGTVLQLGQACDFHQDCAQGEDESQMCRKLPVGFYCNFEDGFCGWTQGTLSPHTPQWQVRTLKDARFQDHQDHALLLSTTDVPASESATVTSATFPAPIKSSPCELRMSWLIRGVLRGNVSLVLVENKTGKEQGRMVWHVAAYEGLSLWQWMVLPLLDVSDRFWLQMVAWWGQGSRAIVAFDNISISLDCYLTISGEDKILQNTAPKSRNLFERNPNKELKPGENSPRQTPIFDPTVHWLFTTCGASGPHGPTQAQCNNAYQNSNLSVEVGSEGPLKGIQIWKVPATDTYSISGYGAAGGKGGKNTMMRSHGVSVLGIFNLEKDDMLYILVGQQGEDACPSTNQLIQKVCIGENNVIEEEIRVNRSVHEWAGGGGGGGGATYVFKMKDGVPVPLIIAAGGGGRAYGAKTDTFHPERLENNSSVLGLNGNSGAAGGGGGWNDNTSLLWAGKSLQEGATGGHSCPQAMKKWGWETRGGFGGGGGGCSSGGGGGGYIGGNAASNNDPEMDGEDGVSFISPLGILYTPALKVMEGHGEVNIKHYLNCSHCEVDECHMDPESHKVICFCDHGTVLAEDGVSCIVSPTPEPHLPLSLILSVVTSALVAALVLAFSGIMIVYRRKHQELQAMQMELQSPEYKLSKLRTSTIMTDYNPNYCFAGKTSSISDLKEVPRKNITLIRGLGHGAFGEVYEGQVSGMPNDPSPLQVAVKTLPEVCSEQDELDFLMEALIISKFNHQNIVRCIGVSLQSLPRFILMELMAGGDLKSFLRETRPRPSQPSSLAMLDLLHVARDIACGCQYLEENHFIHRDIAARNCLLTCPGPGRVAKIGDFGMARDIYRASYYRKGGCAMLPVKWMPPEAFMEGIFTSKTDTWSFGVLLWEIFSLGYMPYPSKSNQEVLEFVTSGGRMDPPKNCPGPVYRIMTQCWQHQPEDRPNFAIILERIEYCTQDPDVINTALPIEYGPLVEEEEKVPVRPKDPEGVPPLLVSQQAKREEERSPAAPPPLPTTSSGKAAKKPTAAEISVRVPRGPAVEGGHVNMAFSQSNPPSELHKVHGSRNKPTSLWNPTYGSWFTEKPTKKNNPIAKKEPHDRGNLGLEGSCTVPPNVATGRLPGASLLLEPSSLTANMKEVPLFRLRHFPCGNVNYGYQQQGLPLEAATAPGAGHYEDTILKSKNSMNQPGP

[4] = system: Epidermal growth factor receptor (Homo sapiens), P00533 [T790M]; assay: Inhibition of EGFR T790M mutant (unknown origin) assessed as residual activity at 1000 nM by KINOMEscan analysis relative to control
[5] = system: Epidermal growth factor receptor (Homo sapiens), P00533 [UNDEFINED MUTATION]; assay: Inhibition of EGFR L747-T751del/Sins mutant (unknown origin) assessed as residual activity at 1000 nM by KINOMEscan analysis relative to control
[6] = biological target: Tyrosine-protein kinase Fer (Homo sapiens) (UniProt P16591); assay: Inhibition of FER (unknown origin) assessed as residual activity at 1000 nM by KINOMEscan analysis relative to control
Tyrosine-protein kinase Fer (Homo sapiens), sequence (P16591 whole entry, looked up): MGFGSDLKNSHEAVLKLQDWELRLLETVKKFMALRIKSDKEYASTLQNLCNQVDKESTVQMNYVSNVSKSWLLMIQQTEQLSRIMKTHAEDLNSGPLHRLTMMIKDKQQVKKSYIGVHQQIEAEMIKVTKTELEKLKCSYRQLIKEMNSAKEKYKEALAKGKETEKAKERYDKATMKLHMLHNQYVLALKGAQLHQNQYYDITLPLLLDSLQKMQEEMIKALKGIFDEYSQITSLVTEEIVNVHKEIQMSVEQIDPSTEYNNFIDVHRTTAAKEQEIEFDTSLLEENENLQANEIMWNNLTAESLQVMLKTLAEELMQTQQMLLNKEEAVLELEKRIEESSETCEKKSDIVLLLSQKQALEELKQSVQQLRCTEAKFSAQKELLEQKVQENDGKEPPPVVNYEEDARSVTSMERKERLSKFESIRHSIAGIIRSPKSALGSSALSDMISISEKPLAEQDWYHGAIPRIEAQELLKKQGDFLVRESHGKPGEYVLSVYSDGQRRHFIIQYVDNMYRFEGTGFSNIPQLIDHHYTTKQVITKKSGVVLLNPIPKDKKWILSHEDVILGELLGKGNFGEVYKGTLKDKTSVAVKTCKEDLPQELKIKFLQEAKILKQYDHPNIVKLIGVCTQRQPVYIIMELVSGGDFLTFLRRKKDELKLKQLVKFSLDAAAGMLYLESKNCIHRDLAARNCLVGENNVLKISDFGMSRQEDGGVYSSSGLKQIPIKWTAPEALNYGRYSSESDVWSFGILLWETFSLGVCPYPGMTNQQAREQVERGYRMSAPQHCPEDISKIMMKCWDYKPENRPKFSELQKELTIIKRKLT

[7] = biological target: MAP kinase-activated protein kinase 2 (Homo sapiens) (UniProt P49137); assay: Inhibition of MAPKAPK2 (unknown origin) assessed as residual activity at 1000 nM by KINOMEscan analysis relative to control
MAP kinase-activated protein kinase 2 (Homo sapiens), sequence (P49137 whole entry, looked up): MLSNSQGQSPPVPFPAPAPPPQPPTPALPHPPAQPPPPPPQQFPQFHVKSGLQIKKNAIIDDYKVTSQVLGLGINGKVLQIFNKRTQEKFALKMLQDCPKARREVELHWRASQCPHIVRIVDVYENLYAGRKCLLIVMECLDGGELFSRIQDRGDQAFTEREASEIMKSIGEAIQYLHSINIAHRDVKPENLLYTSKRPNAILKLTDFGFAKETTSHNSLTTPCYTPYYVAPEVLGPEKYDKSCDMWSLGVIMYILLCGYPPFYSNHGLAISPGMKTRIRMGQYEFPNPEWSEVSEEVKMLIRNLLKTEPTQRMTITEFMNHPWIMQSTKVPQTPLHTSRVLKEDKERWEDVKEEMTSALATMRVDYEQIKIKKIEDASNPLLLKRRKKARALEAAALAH

[8] = biological target: Dual specificity testis-specific protein kinase 1 (Homo sapiens) (UniProt Q15569); assay: Inhibition of TESK1 (unknown origin) assessed as residual activity at 1000 nM by KINOMEscan analysis relative to control
Dual specificity testis-specific protein kinase 1 (Homo sapiens), sequence (Q15569 whole entry, looked up): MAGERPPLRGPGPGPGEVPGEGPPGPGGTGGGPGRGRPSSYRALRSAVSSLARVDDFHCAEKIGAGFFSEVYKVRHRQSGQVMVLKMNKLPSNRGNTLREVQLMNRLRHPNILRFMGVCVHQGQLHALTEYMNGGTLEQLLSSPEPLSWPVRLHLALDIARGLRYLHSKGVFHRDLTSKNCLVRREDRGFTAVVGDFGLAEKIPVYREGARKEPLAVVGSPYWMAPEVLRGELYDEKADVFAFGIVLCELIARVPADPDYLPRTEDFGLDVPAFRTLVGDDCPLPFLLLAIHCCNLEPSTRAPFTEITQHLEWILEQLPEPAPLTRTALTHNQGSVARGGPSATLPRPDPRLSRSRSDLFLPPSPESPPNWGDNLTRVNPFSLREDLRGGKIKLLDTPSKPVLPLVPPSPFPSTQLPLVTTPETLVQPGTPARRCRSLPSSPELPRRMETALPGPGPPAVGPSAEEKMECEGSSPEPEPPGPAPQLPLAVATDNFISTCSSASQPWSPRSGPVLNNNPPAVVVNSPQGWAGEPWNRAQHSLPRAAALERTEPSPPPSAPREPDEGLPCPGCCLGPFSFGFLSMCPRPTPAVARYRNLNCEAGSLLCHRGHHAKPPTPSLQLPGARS

[9] = biological target: T2, Myosin light chain kinase family member 4 (Homo sapiens) (UniProt Q86YV6); assay: Inhibition of MYLK4 (unknown origin) assessed as residual activity at 1000 nM by KINOMEscan analysis relative to control
T2 sequence (whole entry): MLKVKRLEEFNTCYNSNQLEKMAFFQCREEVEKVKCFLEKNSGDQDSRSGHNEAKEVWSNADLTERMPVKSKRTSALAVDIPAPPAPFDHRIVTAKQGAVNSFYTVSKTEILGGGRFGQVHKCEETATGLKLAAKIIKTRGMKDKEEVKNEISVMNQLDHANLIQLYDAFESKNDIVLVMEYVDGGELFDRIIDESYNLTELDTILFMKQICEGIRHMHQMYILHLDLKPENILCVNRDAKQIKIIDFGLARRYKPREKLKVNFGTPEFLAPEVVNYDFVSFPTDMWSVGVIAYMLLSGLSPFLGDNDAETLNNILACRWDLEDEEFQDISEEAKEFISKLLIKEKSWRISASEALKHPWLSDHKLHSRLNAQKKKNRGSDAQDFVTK

[10] = biological target: Mitogen-activated protein kinase 14 (Homo sapiens) (UniProt Q16539); assay: Inhibition of p38-alpha (unknown origin) assessed as residual activity at 1000 nM by KINOMEscan analysis relative to control
Mitogen-activated protein kinase 14 (Homo sapiens), sequence (Q16539 whole entry): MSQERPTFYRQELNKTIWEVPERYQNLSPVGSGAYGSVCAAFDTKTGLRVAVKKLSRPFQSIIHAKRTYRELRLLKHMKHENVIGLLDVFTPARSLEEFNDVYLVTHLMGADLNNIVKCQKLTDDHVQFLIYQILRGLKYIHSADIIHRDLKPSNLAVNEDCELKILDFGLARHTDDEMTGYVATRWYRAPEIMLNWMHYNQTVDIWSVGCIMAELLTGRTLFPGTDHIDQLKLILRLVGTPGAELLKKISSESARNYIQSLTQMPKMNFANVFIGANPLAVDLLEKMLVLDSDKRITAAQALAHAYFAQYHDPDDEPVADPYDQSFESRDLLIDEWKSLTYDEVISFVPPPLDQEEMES

[11] = system: Mast/stem cell growth factor receptor Kit (Homo sapiens), P10721 [D816H]; assay: Inhibition of KIT D816H mutant (unknown origin) assessed as residual activity at 1000 nM by KINOMEscan analysis relative to control
Mast/stem cell growth factor receptor Kit (Homo sapiens), P10721 [D816H], sequence (P10721 whole entry D816H): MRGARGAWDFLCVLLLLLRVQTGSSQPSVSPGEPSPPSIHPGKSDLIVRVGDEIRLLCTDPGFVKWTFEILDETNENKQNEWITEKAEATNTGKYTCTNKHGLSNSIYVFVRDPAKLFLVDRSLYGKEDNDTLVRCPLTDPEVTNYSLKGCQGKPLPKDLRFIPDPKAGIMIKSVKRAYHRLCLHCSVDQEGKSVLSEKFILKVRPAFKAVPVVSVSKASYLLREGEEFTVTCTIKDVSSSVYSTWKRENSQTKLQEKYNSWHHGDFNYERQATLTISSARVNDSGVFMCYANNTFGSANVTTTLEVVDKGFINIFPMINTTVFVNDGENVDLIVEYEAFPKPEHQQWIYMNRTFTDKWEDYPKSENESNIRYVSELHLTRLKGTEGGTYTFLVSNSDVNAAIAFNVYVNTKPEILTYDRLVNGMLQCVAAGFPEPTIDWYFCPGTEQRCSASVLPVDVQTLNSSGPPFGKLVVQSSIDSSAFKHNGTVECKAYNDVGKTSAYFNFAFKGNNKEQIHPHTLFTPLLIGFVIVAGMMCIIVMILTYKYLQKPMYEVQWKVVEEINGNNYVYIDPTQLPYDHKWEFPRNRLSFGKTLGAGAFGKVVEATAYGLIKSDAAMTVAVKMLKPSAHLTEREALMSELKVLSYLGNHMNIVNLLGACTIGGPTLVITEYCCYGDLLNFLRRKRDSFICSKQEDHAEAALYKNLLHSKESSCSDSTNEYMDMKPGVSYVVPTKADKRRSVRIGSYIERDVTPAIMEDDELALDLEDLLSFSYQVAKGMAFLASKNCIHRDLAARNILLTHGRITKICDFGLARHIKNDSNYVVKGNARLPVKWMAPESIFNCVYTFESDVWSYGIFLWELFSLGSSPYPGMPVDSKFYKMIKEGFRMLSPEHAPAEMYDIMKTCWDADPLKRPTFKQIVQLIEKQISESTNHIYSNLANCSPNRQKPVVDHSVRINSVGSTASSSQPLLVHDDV

Calu-1 = assay: Antiproliferative activity against human Calu-1 cells assessed as inhibition of cell viability incubated for 72 hrs by Cell Titer Glo assay; format: functional, cell-based; settings: Calu-1, 72 h

Row | Compound | Activity [1] [%] | Activity [2] [%] | Activity [3] [%] | Activity [4] [%] | Activity [5] [%] | Activity [6] [%] | Activity [7] [%] | Activity [8] [%] | Activity [9] [%] | Activity [10] [%] | Activity [11] [%] | IC50 (Calu-1) [µM]
1 | COc1cc2ncnc(N[C@H](C)c3cccc4ccccc34)c2cc1OC | 94 | 3.2 | 80 | 81 | 5.8 | 97 | 100 | 96 | 75 | 58 | 97 | –
2 | CNCc1ccccc1-c1csc([C@@H](C)Nc2nc(C)nc3cc(OC)c(OC)cc23)c1 [BAY-293] | – | – | – | – | – | – | – | – | – | – | – | 3.19
3 | COc1cc2nc(C)nc(N[C@H](C)c3cccc(-c4cn[nH]c4)c3)c2cc1OC | 89 | 99 | 67 | 87 | 99 | 99 | 99 | 100 | 92 | 98 | 88 | 17
